One assay has as its target T1, PRMT5 (Homo sapiens, UniProt O14744).
T1 construct: His-tag; made in house; host or cells: Sf9 insect cells (Bac-to-Bac baculovirus)
Kind of assay: scintillation proximity assay (SPA) of PRMT5 methyltransferase activity. Format: biochemical. The note with it: 0.5 μM H4(1–20)K20biotin, 0.5 μM 3H-SAM; for remaining activity at 10 µM: 0.5 h, remaining activity of the enzyme, single point SPA test, inhibitor 10 μM, read-out: Relative Activity of PRMT5 at 10 μM; for IC50: SPA, concentration-dependent, read-out: IC50 PRMT5 (converted). The procedure: (§1) The methyltransferase activities of PRMT5 and PRMT1 in the absence and presence of the synthetic inhibitors were measured by using the scintillation proximity assay (SPA) protocol (Table 1). In the initial test, the inhibitor concentration was set at 10 μM. H4(1–20)K20biotin [Ac-[…](biotin)-NH2] was used as the peptide substrate, at a final concentration of 0.5 μM. ^3H-SAM was used as the methyl donor at 0.5 μM. SAH was used as a control inhibitor. […] Analysis of the biochemical activity results against PRMT5 disclosed a few interesting structure–activity relationship (SAR) trends. […] If the hydroxyl group of 3 was changed to an amine (6), the potency was improved; however, the selectivity was abolished. Generally, compounds that contained positive charges (6, 20, 21, 22, 24) near the triazole ring had further improved potencies.
Human recombinant His-tag PRMT5 was co-expressed with His-tag MEP50 using the Bac-to-Bac baculovirus expression system (Invitrogen, Life Technologies, Carlsbad, CA, USA) as previously described. Briefly, pFB-LIC-Bse-PRMT5 and pFB-LIC-Bse-MEP50 were heat shock transformed in the DH10Bac E. coli to obtain the recombinant bacmids, and the bacmids were extracted using the PureLink HiPure Plasmid Miniprep Kit (Invitrogen, Thermo Scientific, Carlsbad, CA, USA). The purity and concentration of the plasmid were measured by a Nanodrop. Sf9 cells were cultured in Sf-900 II SFM medium until the cell density reached 1.5 × 10^6 cells/mL and cell viability was more than 95%. Cells were plated in a 6-well tissue culture plate at a density of 4 × 10^5 cells/mL per well. In total, 2 µg of PRMT5 and MEP50 recombinant bacmid were transfected into each well of cells. After 5 h of transfection, the transfection medium was replaced by 2 mL of Sf-900 II SFM + 100 U P/S per well. The medium was collected and centrifuged at 1000 rpm for 5 min to obtain the supernatant P1 viral stock after 7 days of inoculation at 27.5 °C. To obtain a higher titer of viral stock, P1 viral stock was amplified in a 6-well tissue culture plate containing 2 × 10^6 cells per well. In total, 0.1 MOI of P1 virus stock was added into each well. After 7 days of incubation at 27.5 °C, the cell medium was centrifuged at 1000 rpm for 5 min to obtain the P2 viral stock in the supernatant. The Baculovirus plaque assay was performed to determine the viral titer concentration; the target concentration range was 1 × 10^7–1 × 10^8 IFU/mL.
For the expression of PRMT5 and MEP50, Sf9 insect cells were cultured in suspension at 27.5 °C at a speed of 130 rpm in Expression Systems ESF 921 medium with 100 U P/S. In total, 200 mL of Sf9 cell culture was inoculated with PRMT5 and MEP50 P2 viral stocks when the cell density reached 1.5 × 10^6 cells/mL. After incubation for 72 h at 27.5 °C, the cells were harvested and centrifuged. PRMT5 and MEP50 protein were collected in the cell pellet for further purification. Cell pellets were disrupted twice at 100 psi in 25 mL of cell lysis buffer (50 mM Tris pH 8, 300 mM NaCl, 10% glycerol, 0.1% Triton X-100, 1 mM PMSF). Before the Ni-NTA purification, 10 mL of Ni-NTA resin (EMD Millipore, Burlington, MA, USA) was loaded into a 50 mL column and equilibrated with equilibration buffer (50 mM Tris pH 8, 250 mM NaCl, 30 mM Imidazole, 10% glycerol, 1 mM TCEP, 1 mM PMSF). After 60 min of cell lysate centrifugation at 4 °C at 18,000 rpm, the cell lysate supernatant was incubated with the equilibrated nickel resin. The resin was washed with equilibration buffer and protein was eluted with elution buffer (50 mM Tris pH 8, 250 mM NaCl, 300 mM Imidazole, 10% glycerol, 1 mM TCEP, 1 mM PMSF). For the dialysis of protein, elution samples were loaded into a 10,000 MWCO SnakeSkin (Thermo Scientific, Waltham, MA, USA) dialysis bag in the storage buffer (50 mM Tris pH 8, 250 mM NaCl, 10% glycerol, 1 mM TCEP). […]
In general terms: In a scintillation proximity assay essentially only radioactivity close to the scintillant gives light.

The next assay deals with PRMT1 (Homo sapiens, UniProt Q99873). Kind of assay: scintillation proximity assay (SPA) of PRMT1 methyltransferase activity. Format: biochemical. The note with it: for remaining activity at 10 µM: 0.5 h, remaining activity of the enzyme, single point SPA test, inhibitor 10 μM, read-out: Relative Activity of PRMT1 at 10 μM; for IC50: SPA, concentration-dependent, read-out: IC50 PRMT1 (converted). The procedure:
as §1
Inhibitor was dissolved in water to create a 10 mM stock concentration. This was then diluted in buffer (50 mM HEPES pH 8, 10 mM NaCl, 0.5 mM EDTA, 0.5 mM DTT in H2O) to create a series of working concentrations centered around an anticipated IC50. [H]^3-SAM and substrate were diluted together in buffer to working concentrations of […], respectively. To each well in a 96-well plate, 6 μL of the inhibitor solution was added, with negative and positive controls receiving buffer. In total, 6 μL of the [H]^3-SAM/substrate solution was then added to each well. The enzyme was then diluted in buffer to a working concentration of 0.83 μM, and 18 μL was added to each well, with negative controls receiving 18 μL of buffer. The plate was covered, and the reaction was allowed to run for 30 min and was then quenched with the addition of 30 μL of 100% iPrOH followed by 60 μL of 50% iPrOH in H2O. In total, 10 μL of 20 mg/mL streptavidin-coated scintillant beads were added and the plate was read using a MicroBeta (Perkin Elmer, Waltham, MA, USA) plate reader. The CPM counts in the absence of an inhibitor for each data set were considered as 100% activity. In the absence of the enzyme and inhibitor, the CPM counts in each data set were defined as background (0%).

T1 sequence (O14744 whole entry): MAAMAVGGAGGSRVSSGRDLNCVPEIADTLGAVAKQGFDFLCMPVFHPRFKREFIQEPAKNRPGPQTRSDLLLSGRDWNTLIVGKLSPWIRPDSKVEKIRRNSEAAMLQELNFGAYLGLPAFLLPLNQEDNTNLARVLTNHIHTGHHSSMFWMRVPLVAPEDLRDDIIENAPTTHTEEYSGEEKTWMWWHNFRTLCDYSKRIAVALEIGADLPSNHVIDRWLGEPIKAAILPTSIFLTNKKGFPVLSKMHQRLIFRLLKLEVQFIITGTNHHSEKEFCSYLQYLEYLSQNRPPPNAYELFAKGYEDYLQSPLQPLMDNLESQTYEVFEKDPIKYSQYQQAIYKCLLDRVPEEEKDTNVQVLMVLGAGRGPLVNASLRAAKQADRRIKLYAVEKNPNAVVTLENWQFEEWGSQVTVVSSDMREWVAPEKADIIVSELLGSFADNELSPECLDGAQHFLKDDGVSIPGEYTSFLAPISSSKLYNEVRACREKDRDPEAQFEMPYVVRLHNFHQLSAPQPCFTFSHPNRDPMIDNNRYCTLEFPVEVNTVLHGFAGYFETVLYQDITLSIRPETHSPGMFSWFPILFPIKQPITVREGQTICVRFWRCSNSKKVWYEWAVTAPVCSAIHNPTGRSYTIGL
T1 sequence (Q9BQA1 whole entry partner): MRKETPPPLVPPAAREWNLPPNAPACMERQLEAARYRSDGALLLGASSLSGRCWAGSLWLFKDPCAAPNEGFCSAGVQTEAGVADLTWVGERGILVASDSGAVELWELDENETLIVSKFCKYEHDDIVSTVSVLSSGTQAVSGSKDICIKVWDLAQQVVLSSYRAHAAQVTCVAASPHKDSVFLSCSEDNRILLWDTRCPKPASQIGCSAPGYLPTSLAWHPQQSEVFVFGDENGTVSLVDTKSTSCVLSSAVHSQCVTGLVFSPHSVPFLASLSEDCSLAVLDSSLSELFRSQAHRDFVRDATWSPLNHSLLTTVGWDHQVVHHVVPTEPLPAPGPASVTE
Chain of PRMT1 (Q99873 whole entry, species assumed): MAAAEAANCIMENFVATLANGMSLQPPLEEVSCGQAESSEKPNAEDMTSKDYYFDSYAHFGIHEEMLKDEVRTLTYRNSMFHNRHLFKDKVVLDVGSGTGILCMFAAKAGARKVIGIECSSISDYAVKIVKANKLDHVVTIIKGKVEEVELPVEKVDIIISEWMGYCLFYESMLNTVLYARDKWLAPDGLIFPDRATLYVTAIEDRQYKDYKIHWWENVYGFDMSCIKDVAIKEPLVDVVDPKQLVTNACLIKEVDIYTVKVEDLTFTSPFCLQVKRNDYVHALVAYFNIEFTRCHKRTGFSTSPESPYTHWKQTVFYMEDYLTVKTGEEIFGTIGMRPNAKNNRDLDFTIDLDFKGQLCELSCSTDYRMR

For orientation: IC50 means the concentration needed to halve the response being measured. `[N-]=[N+]=NC[C@H]1O[C@@H](n2cnc3c(N)ncnc32)[C@H](O)[C@@H]1O` [Compound 1, 5′-azido-5′-deoxyadenosine]: at PRMT5, the remaining activity at 10 µM was 48 ± 9.7% and the 50% inhibitory concentration (IC50) is 3 µM. Besides, at PRMT1, the remaining activity at 10 µM is 97.5 ± 7.6% and the IC50 was above 1000 µM.
Consider `Nc1ncnc2c1ncn2[C@@H]1O[C@H](Cn2ccnn2)[C@@H](O)[C@H]1O` [Compound 2, (2R,3S,4R,5R)-2-((1H-1,2,3-triazol-1-yl)methyl)-5-(6-amino-9H-purin-9-yl)tetrahydrofuran-3,4-diol], for which the IC50 at PRMT5 was 27 µM; at PRMT1 it was above 1000 µM.
Taken in the same sequence, the figures for `Nc1ncnc2c1ncn2[C@@H]1O[C@H](Cn2cc(CO)nn2)[C@@H](O)[C@H]1O` [Compound 3, (2R,3R,4S,5R)-2-(6-amino-9H-purin-9-yl)-5-((4-(hydroxymethyl)-1H-1,2,3-triazol-1-yl)methyl)tetrahydrofuran-3,4-diol] were 4.4 µM and above 1000 µM.
For `COCc1cn(C[C@H]2O[C@@H](n3cnc4c(N)ncnc43)[C@H](O)[C@@H]2O)nn1` [Compound 4, (2R,3R,4S,5R)-2-(6-amino-9H-purin-9-yl)-5-((4-(methoxymethyl)-1H-1,2,3-triazol-1-yl)methyl)tetrahydrofuran-3,4-diol], in that order: 144 µM and above 1000 µM.
Taken in the same sequence, the figures for `Nc1ncnc2c1ncn2[C@@H]1O[C@H](Cn2cc(CCO)nn2)[C@@H](O)[C@H]1O` [Compound 5, (2R,3R,4S,5R)-2-(6-amino-9H-purin-9-yl)-5-((4-(2-hydroxyethyl)-1H-1,2,3-triazol-1-yl)methyl)tetrahydrofuran-3,4-diol] were 195 µM and above 1000 µM.
With `NCc1cn(C[C@H]2O[C@@H](n3cnc4c(N)ncnc43)[C@H](O)[C@@H]2O)nn1` [Compound 6, (2R,3R,4S,5R)-2-(6-amino-9H-purin-9-yl)-5-((4-(aminomethyl)-1H-1,2,3-triazol-1-yl)methyl)tetrahydrofuran-3,4-diol], at PRMT5, the remaining activity at 10 µM was determined as 61 ± 8% and the half-maximal inhibitory concentration (IC50) was 1.2 µM. In addition, the remaining activity at 10 µM at PRMT1 came to 96.3 ± 8%.
With `C[Si](C)(C)c1cn(C[C@H]2O[C@@H](n3cnc4c(N)ncnc43)[C@H](O)[C@@H]2O)nn1` [Compound 7, (2R,3R,4S,5R)-2-(6-amino-9H-purin-9-yl)-5-((4-(trimethylsilyl)-1H-1,2,3-triazol-1-yl)methyl)tetrahydrofuran-3,4-diol], the IC50 is 8.3 µM on PRMT5 and above 1000 µM on PRMT1.
Taken in the same sequence, the figures for `CC(C)(C)c1cn(C[C@H]2O[C@@H](n3cnc4c(N)ncnc43)[C@H](O)[C@@H]2O)nn1` [Compound 8, (2R,3R,4S,5R)-2-(6-amino-9H-purin-9-yl)-5-((4-(tert-butyl)-1H-1,2,3-triazol-1-yl)methyl)tetrahydrofuran-3,4-diol] were 7.7 µM and above 1000 µM.
For `C[Si](C)(C)Cc1cn(C[C@H]2O[C@@H](n3cnc4c(N)ncnc43)[C@H](O)[C@@H]2O)nn1` [Compound 9, (2R,3R,4S,5R)-2-(6-amino-9H-purin-9-yl)-5-((4-((trimethylsilyl)methyl)-1H-1,2,3-triazol-1-yl)methyl)tetrahydrofuran-3,4-diol], in that order: above 200 µM and above 1000 µM.
Take `Nc1ncnc2c1ncn2C1OC(Cn2cc(CCC(N)c3ccccc3)nn2)C(O)C1O` (stereo not drawn) [Compound 10]: the remaining activity at 10 µM at PRMT5 is 71 ± 17%; at PRMT1, 103 ± 5.6%.
For `Nc1ncnc2c1ncn2[C@@H]1O[C@H](Cn2cc(C(=O)O)nn2)[C@@H](O)[C@H]1O` [Compound 11, 1-(((2R,3S,4R,5R)-5-(6-amino-9H-purin-9-yl)-3,4-dihydroxytetrahydrofuran-2-yl)methyl)-1H-1,2,3-triazole-4-carboxylic acid], in that order: 74 ± 11% and 96.9 ± 2.2%.
For the molecule `Nc1ncnc2c1ncn2[C@@H]1O[C@H](Cn2cc(CCCC(=O)O)nn2)[C@@H](O)[C@H]1O` [Compound 12, 4-(1-(((2R,3S,4R,5R)-5-(6-amino-9H-purin-9-yl)-3,4-dihydroxytetrahydrofuran-2-yl)methyl)-1H-1,2,3-triazol-4-yl)butanoic acid], at PRMT5, the remaining activity at 10 µM is 73 ± 12% and the IC50 is above 400 µM. Moreover, the remaining activity at 10 µM on PRMT1 came out at 99.3 ± 6.7%.
For `Nc1ncnc2c1ncn2[C@@H]1O[C@H](Cn2cc(CCCCC(=O)O)nn2)[C@@H](O)[C@H]1O` [Compound 13, 5-(1-(((2R,3S,4R,5R)-5-(6-amino-9H-purin-9-yl)-3,4-dihydroxytetrahydrofuran-2-yl)methyl)-1H-1,2,3-triazol-4-yl)pentanoic acid], in that order: 57 ± 4.4%, above 40 µM and 92.7 ± 10%.
Taken in the same sequence, the figures for `Nc1ncnc2c1ncn2[C@@H]1O[C@H](Cn2cc(-c3ccccc3)nn2)[C@@H](O)[C@H]1O` [Compound 14, (2R,3R,4S,5R)-2-(6-amino-9H-purin-9-yl)-5-((4-phenyl-1H-1,2,3-triazol-1-yl)methyl)tetrahydrofuran-3,4-diol] were 51 ± 5.7%, 2.6 µM and 90.1 ± 5.7%.
For `Nc1ncnc2c1ncn2[C@@H]1O[C@H](Cn2cc(CNC(=O)c3ccccc3)nn2)[C@@H](O)[C@H]1O` [Compound 15, N-((1-(((2R,3S,4R,5R)-5-(6-amino-9H-purin-9-yl)-3,4-dihydroxytetrahydrofuran-2-yl)methyl)-1H-1,2,3-triazol-4-yl)methyl)benzamide], in that order: 94.2 ± 12%, above 40 µM and 123 ± 4.4%.
Regarding `Nc1ncnc2c1ncn2[C@@H]1O[C@H](Cn2cc(CNC(=O)OCc3ccccc3)nn2)[C@@H](O)[C@H]1O` [Compound 16], the remaining activity at 10 µM at PRMT5 came out at 80 ± 9.5%; at PRMT1, 101 ± 10%.

For the origin of these results see PMC9228412, “Synthesis and Activity of Triazole-Adenosine Analogs as Protein Arginine Methyltransferase 5 Inhibitors” (Molecules, 2022).
